This is an account of results in article PMC3473359, “Formation of a heterooctameric complex between aspartate α-decarboxylase and its cognate activating factor, PanZ, is CoA-dependent” (Biochemical and Biophysical Research Communications, 2012).

One may read the Kd as the constant that tells how readily two partners part at equilibrium. A low value points to a tighter complex.

For assay [1], the target named is T1, PanZ (Escherichia coli, UniProt P37613).
T1 construct: His-tagged PanZ from pCA24N(-GFP)-his-panZ, expressed in E. coli delta-panD delta-panZ (DE3); Ni-NTA and Superdex 75; monomer; copurifies partly with CoA
T1 sequence (P37613 1-127): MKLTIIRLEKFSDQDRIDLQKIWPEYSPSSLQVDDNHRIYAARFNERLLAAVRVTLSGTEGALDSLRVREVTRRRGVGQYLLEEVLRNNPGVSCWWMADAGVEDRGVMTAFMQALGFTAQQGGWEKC
As to the kind of experiment: isothermal titration calorimetry. The class given is binding. The conditions noted are these: pH 7.4, 25 °C; sample contains copurified CoA. In general terms: Isothermal titration calorimetry measures the heat released or taken up as one component is titrated into another.

For assay [2], the target named is T1, PanZ. As to the kind of experiment: isothermal titration calorimetry. It is filed as binding. An excerpt:
isothermal titration calorimetry on PanZ

For the compound `CC(=O)SCCNC(=O)CCNC(=O)[C@H](O)C(C)(C)COP(=O)(O)OP(=O)(O)OC[C@H]1O[C@@H](n2cnc3c(N)ncnc32)[C@H](O)[C@@H]1OP(=O)(O)O` [acetyl CoA], in assay [1], the isothermal titration calorimetry entry is “titration of CoA and AcCoA into PanZ showed binding”.
In assay [2], `CC(C)(COP(=O)(O)OP(=O)(O)OC[C@H]1O[C@@H](n2cnc3c(N)ncnc32)[C@H](O)[C@@H]1OP(=O)(O)O)[C@@H](O)C(=O)NCCC(=O)NCCS` [CoA] came in with a Kd of 1.95 ± 0.16 µM.
